The values below come from US11667636B2, “Modulators of Mas-related G-protein receptor X2 and related products and methods” (Escient Pharmaceuticals, Inc., priority 2020, dated 2023).

Each structure is given as a SMILES string.

The target in this assay is T1, human MRGPRX2 (Homo sapiens, UniProt Q96LB1).
T1 construct: expressed in transfected cells
T1 sequence (Q96LB1 1-330): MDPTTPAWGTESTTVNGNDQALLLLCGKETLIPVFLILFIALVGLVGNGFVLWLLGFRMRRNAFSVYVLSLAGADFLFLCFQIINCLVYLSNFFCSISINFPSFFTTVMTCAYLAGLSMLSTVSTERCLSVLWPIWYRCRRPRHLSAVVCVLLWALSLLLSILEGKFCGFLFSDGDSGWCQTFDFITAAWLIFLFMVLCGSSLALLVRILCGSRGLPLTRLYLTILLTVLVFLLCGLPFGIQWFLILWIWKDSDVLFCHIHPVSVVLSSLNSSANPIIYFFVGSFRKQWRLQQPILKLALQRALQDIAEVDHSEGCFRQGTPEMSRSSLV
Put plainly: MRGPRX2 Activity: IP-One HTRF antagonist assay in CHO cells stably expressing human MRGPRX2, versus Cortistatin-14. It is filed as cell-based. As to conditions: versus 0.3 uM Cortistatin-14 agonist, IP-1 HTRF, read-out: MRGPR2 Antagonist Activity. Here is the method: CHO cells stably transfected to express human MRGPRX2 were maintained in an incubator at 37° C. with 5% CO2 and grown in F12 (HAM) media with 10% fetal bovine serum (FBS), 1% Glutamax, 1% penicillin/streptomycin, 800 μg/mL Geneticin (G418), and 300 μg/mL Hygromycin B. Cells were plated in a 384-well assay plate at 20,000 cells per well in 12 μL of Opti-MEM and kept in an incubator overnight. On the day of the assay, compounds solubilized at 10 mM in DMSO were added as a 10-point curve (30 uM final top concentration with 1:3 serial dilutions) using a Tecan D300E digital dispenser. Agonists were diluted in assay buffer (final concentrations of 5.7 mM Tris-HCl, 43 mM NaCl, 50 mM LiCl, pH=8) and 2 μL of the agonist Cortistatin-14 (CPC Scientific, catalog CORT-002) are added to each well. Final concentrations of agonists were 0.3 μM Cortistatin-14. Final concentrations of DMSO were kept consistent across the plate. Plates were incubated in the dark for 1 hr at 37° C. and then for 1 hr at room temperature. IP-1 standards and HTRF detection reagents were added according to the IP-One-Gq Kit purchased from Cisbio (part number 62IPAPEJ) and incubated in the dark for 1 hr at room temperature. The plate was read on a Molecular Devices SpectraMax iD5 plate reader. The HTRF ratio was calculated from the raw data and graphed using GraphPad Prism to calculate an IC50 value for each compound.
The activity ranges are denoted as follows: “+++++” denotes antagonist activity <50 nM; “++++” denotes antagonist activity between 51 and 100 nM; “+++” denotes activity between 101 and 500 nM; “++” denotes activity between 501 and 1000 nM; and “+” denotes activity >1000 nM
(In general: In TR-FRET formats the signal depends on donor and acceptor labels being close together.)
Consider `CN(CC(F)F)c1cccc(C(=O)N[C@H]2CC[C@@H](Nc3cccc4nc(C(F)(F)F)cn34)CC2)c1` [2-14], for which the IC50 is 51 to 100 nM. With `O=C(N[C@H]1CC[C@@H](Nc2cccc3nc(C(F)F)cn23)CC1)c1cn(C(F)(F)F)nc1Cl` [2-295], the IC50 was 51 to 100 nM. The result for `Cn1cc(C(=O)N[C@H]2CC[C@@H](Nc3cccc4nc(C(F)(F)F)cn34)CC2)nn1` [2-233] reads 101 to 500 nM; that for `O=C(N[C@H]1CC[C@@H](Nc2cccc3nc(C(F)(F)F)cn23)CC1)c1cccc2[nH]ccc12` [2-232], < 50 nM. Consider `O=C(N[C@H]1CC[C@@H](Nc2cccc3sc(C(F)F)cc23)CC1)c1ccc(F)cc1` [1-13], for which the IC50 is 51 to 100 nM. The result for `CCOCc1cc2c(N[C@H]3CCC[C@@H](NC(=O)c4ccc(OC)cc4)C3)cccc2s1` [1-3] reads > 1000 nM; that for `O=C(N[C@H]1CC[C@@H](Nc2cccc3nc(C(F)F)cn23)CC1)c1ccnc2cn[nH]c12` [2-253], < 50 nM. In the case of `CNc1ccccc1C(=O)N[C@H]1CC[C@@H](Nc2cccc3nc(C#N)cn23)CC1` [2-262], the IC50 is 101 to 500 nM.

On to `CC(C)(F)Cn1cc(C(=O)N[C@H]2CC[C@@H](Nc3cccc4nc(C(F)F)cn34)CC2)c(Cl)n1` [2-257], for which the IC50 is < 50 nM. As to `O=C(N[C@H]1CC[C@@H](Nc2cccc3nc(C(F)F)cn23)CC1)c1cn(C(F)F)nc1C(F)F` [2-220], the IC50 is < 50 nM. Regarding `O=C(N[C@H]1CC[C@@H](Nc2cccc3nc(C(F)(F)F)cn23)CC1)c1ccc(C(F)F)cc1` [2-179], the IC50 is < 50 nM. With `O=C(N[C@H]1CC[C@@H](Nc2cccc3nc(C(F)(F)F)cn23)CC1)c1cc2cc(F)cnc2[nH]1` [2-120], the IC50 is < 50 nM. Take `CC(C#N)c1cccc(C(=O)N[C@H]2CC[C@@H](Nc3cccc4sc(C(F)(F)F)cc34)CC2)c1` (some centres unmarked) [2-5]: the IC50 lay within 101 to 500 nM. As for `Cc1cc2c(C(=O)N[C@H]3CC[C@@H](Nc4cccc5nc(C(F)(F)F)cn45)CC3)cccc2n1C` [2-198], the IC50 is < 50 nM.
